Tests used:
[1] = PK profile of QSI-5 and SDM in chicken plasma (LC-MS); format: in vivo, chickens
Experimental: The amount of QSI-5 and SDM in chicken plasma was measured using LC-MS. The optimized dose of QSI-5 (1 mg/L) and the therapeutic dose of SDM (495.323 mg/L) (0.05%) were administered orally as a single dose. Blood was collected individually from five chickens per group at different time points (0 h, 0.5 h, 1 h, 2 h, 4 h, 8 h, 12 h, 24 h) after administration of QSI-5 and SDM in vacutainer EDTA (10.8 mg) tubes (Becton, Dickinson, NJ, USA), blood was placed on ice for 1 h to clot, plasma was separated by centrifuging at 2,000 × g for 10 min at 4°C and stored at −80°C °C for LC-MS analysis. Plasma protein was precipitated by adding cold methanol and 10 μL (1 μg/mL) of an internal standard (IS) heavy-labeled phenylalanine (dissolved in 0.1% formic acid) was added to each 100 μL aliquot. The mixture was then incubated at −20°C for 30 min and centrifuged at 1300 × g for 25 min at 2°C. Sixty μL of the supernatant was pipetted into LC vials. For standard calibration, solutions of 0.0, 0.001, 0.005, 0.01, 0.05, 0.1, 0.5, 1, and 5 μg/mL of QSI-5 and SDM were prepared and 20 μL of each standard solution was added to 80 μL of cold methanol and IS as mentioned above. All samples were run by injecting 5 μL on an Agilent Poroshell 120 SB-C18 (2 × 100 mm in diameter, 2.7 μm particle sizes). The LC system (Thermo Fisher Scientific UltiMate 3000 HPLC) was used with solvent A (10 mM ammonium formate and 0.1% formic acid) and solvent B (methanol with a flow rate of 200 μL/min). The gradient was set to 2% B at 2 min, increased from 2% to 20% at 5 min, 40% at 7.5 min, and reached 90% after 9 min. The gradient was sustained at 90% B for 11 min and then decreased to 2% at 12 min and was held for equilibration until the run ended after 15 min. The mass spectrometer (Thermo Fisher Scientific Quantiva Triple Quadrupole) was set to multiple reactions monitoring mode (SRM) with a heated electrospray ionization source (ESI) in positive mode at 3.5 kV. Drug targets were monitored for QSI-5 at transitions 309.26→105.1 m/z and 309.26→203.15 m/z at 28 and 20 V collision energy, respectively, and for SDM at transitions 311.11→156.11 m/z and 311.11→245.07 m/z at 21 and 18 V CE. The analysis of plasma samples was performed in Campus Chemical Instrumentation Center, Mass Spectrometry and Proteomics Facility (CCIC, MS&P), The Ohio State University (https://live-ccic.pantheonsite.io/MSP).

[2] = based on the observations during dosing in drinking water
[3] = single oral dose (QSI-5 1 mg/L, SDM 495.323 mg/L)

SMILES: Cc1ccc(CN2CCN(CCCc3ccccc3)CC2)cc1 [QSI-5]
- half-life ([1]; single oral dose): short half-life
- time by which excreted ([1]; single oral dose): ≤ 24 HPT
- maximum concentration in plasma (Cmax) [1, 3]: 0.76 ng/mL
- time of peak concentration in plasma [1, 3]: 2 HPT
- time at which absorbed / detected in blood ([1]; single oral dose (QSI-5 1 mg/L, SDM 495.323 mg/L), h posttreatment): 0.5 HPT
- aqueous solubility [2]: good aqueous solubility

From article PMC9241644, “Evaluation of Novel Quorum Sensing Inhibitors Targeting Auto-Inducer 2 (AI-2) for the Control of Avian Pathogenic Escherichia coli Infections in Chickens” (Microbiology Spectrum, 2022)
